# Assay results published in patent publication US20230141600A1, “IMIDAZOPYRAZINE DERIVATIVES” (priority 2020, published 2023).
# Structures can show the parent of a compound that is named as a salt.
# Test system: Acinetobacter baumannii ATCC17961
# Assay: 90% growth inhibitory concentration (IC90) determination, antimicrobial susceptibility testing
# Format: cell-based
# Conditions: 90% growth inhibition, Iso-Sensitest broth, OD 600 nm over 16 h, 35±2° C.; read-out: ATCC 17961 IC90
# In short: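 Twofold serial dilutions (e.g. 50 to 0.097 μM final) in Iso-Sensitest broth, inoculated at ~5×10^5 CFU/ml and incubated at 35±2 °C for 16 h with OD600 read every minute. IC90 taken from growth inhibition during the logarithmic phase.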
row,Compound,IC90
1,"CCc1cc(Nc2nccn3c(-c4ccc(OC(F)F)c(F)c4F)cnc23)ccc1C(=O)NCCC1CC[N+](C)(CC2CNC2)CC1 (stereo not shown) [Example 91, N-[2-[1-(azetidin-3-ylmethyl)-1-methyl-piperidin-1-ium-4-ylethyl]-4-[[3-[4-(difluoromethoxy)-2,3-difluoro-phenyl]imidazo[1,2-a]pyrazin-8-yl]amino]-2-ethyl-benzamide Diformate]",834 nM

# Same assay, conditions: Acinetobacter baumannii, ATCC17961, 16 h, 90% growth inhibition, Iso-Sensitest broth, OD 600 nm over 16 h, 35±2° C.; read-out: ATCC 17961 IC90
row,IC90,Compound
1,332 nM,"CCc1cc(Nc2nccn3c(-c4ccc(OC(F)F)c(F)c4F)cnc23)ccc1C(=O)NCCC(=O)N1CC[N+](C)(CC2CNC2)CC1 [Example 92, N-[3-[4-(Azetidin-3-ylmethyl)-4-methyl-piperazin-4-ium-1-yl]-3-oxo-propyl]-4-[[3-[4-(difluoromethoxy)-2,3-difluoro-phenyl]imidazo[1,2-a]pyrazin-8-yl]amino]-2-ethyl-benzamide bis(2,2,2-trifluoroacetate)]"
2,909 nM,"CCc1cc(Nc2nccn3c(-c4ccc(OC(F)F)c(F)c4F)cnc23)ccc1C(=O)N1CCN(C(=O)C2CC[N+](C)(CC3CNC3)CC2)CC1C(=O)OC (stereo not shown) [Example 93, Methyl 4-[1-(azetidin-3-ylmethyl)-1-methyl-piperidin-1-ium-4-carbonyl]-1-[4-[[3-[4-(difluoromethoxy)-2,3-difluoro-phenyl]imidazo[1,2-a]pyrazin-8-yl]amino]-2-ethyl-benzoyl]piperazine-2-carboxylate bis(2,2,2-trifluoroacetate)]"
3,457 nM,"CCc1cc(Nc2nccn3c(-c4ccc(OC(F)F)c(F)c4F)cnc23)ccc1C(=O)N1CCN(C(=O)C2CC[N+](C)(CC3CNC3)CC2)C(C(=O)OC)C1 (stereo not shown) [Example 94, methyl 1-[1-(azetidin-3-ylmethyl)-1-methyl-piperidin-1-ium-4-carbonyl]-4-[4-[[3-[4-(difluoromethoxy)-2,3-difluoro-phenyl]imidazo[1,2-a]pyrazin-8-yl]amino]-2-ethyl-benzoyl]piperazine-2-carboxylate tris(2,2,2-trifluoroacetate)]"
4,725 nM,"CCc1cc(Nc2nccn3c(-c4ccc(OC(F)F)c(F)c4F)cnc23)ccc1C(=O)N1CC2(C1)CN(C(=O)C1CC[N+](C)(CC3CCNC3)CC1)C2 (stereo not shown) [Example 95, [4-[[3-[4-(difluoromethoxy)-2,3-difluoro-phenyl]imidazo[1,2-a]pyrazin-8-yl]amino]-2-ethyl-phenyl]-[2-[1-methyl-1-(pyrrolidin-3-ylmethyl)piperidin-1-ium-4-carbonyl]-2,6-diazaspiro[3.3]heptan-6-yl]methanone bis(2,2,2-trifluoroacetate)]"
5,171 nM,"CCc1cc(Nc2nccn3c(-c4ccc(OC(F)F)c(F)c4F)cnc23)ccc1C(=O)NCCCCC[N+](C)(C)CC1CNC1 [Example 96, Azetidin-3-ylmethyl-[5-[[4-[[3-[4-(difluoromethoxy)-2,3-difluoro-phenyl]imidazo[1,2-a]pyrazin-8-yl]amino]-2-ethyl-benzoyl]amino]pentyl]-dimethyl-ammonium bis(2,2,2-trifluoroacetate)]"
6,205 nM,"CCc1cc(Nc2nccn3c(-c4ccc(OC(F)F)c(F)c4F)cnc23)ccc1C(=O)N1CCC(C(=O)N2CC[N+](C)(CC3CCNC3)CC2)CC1 (stereo not shown) [Example 97, [4-[[3-[4-(Difluoromethoxy)-2,3-difluoro-phenyl]imidazo[1,2-a]pyrazin-8-yl]amino]-2-ethyl-phenyl]-[4-[4-methyl-4-(pyrrolidin-3-ylmethyl)piperazin-4-ium-1-carbonyl]-1-piperidyl]methanone 2,2,2-trifluoroacetate]"
7,223 nM,"CCc1cc(Nc2nccn3c(-c4ccc(OC(F)F)c(F)c4F)cnc23)ccc1C(=O)NCCNC(=O)C1CC[N+](C)(CC2CCNC2)CC1 (stereo not shown) [Example 102, N-[2-[[4-[[3-[4-(Difluoromethoxy)-2,3-difluoro-phenyl]imidazo[1,2-a]pyrazin-8-yl]amino]-2-ethyl-benzoyl]amino]ethyl]-1-methyl-1-(pyrrolidin-3-ylmethyl)piperidin-1-ium-4-carboxamide bis(2,2,2-trifluoroacetate)]"
8,77.9 nM,"C[N+]1(CC2CCNC2)CCC(C(=O)N2CCN(C(=O)c3ccc(Nc4nccn5c(-c6ccc(OC(F)F)c(F)c6F)cnc45)cc3F)CC2)CC1 (stereo not shown) [Example 103, [4-[[3-[4-(Difluoromethoxy)-2,3-difluoro-phenyl]imidazo[1,2-a]pyrazin-8-yl]amino]-2-fluoro-phenyl]-[4-[1-methyl-1-(pyrrolidin-3-ylmethyl)piperidin-1-ium-4-carbonyl]piperazin-1-yl]methanone 2,2,2-trifluoroacetate]"
9,144 nM,"CCc1cc(Nc2nccn3c(-c4ccc(OC)c(F)c4F)cnc23)ccc1C(=O)NCCCCC[N+](C)(CCCCN)CC(=O)O (stereo not shown) [Example 105, 4-aminobutyl-(carboxymethyl)-[5-[[4-[[3-(2,3-difluoro-4-methoxy-phenyl)imidazo[1,2-a]pyrazin-8-yl]amino]-2-ethyl-benzoyl]amino]pentyl]-methyl-ammonium Formate]"
10,241 nM,"CCc1cc(Nc2nccn3c(-c4ccc(OC)c(F)c4F)cnc23)ccc1C(=O)NCCCCC[N+](C)(CC(=O)O)CC1CNC1 (stereo not shown) [Example 106, Azetidin-3-ylmethyl-(carboxymethyl)-[5-[[4-[[3-(2,3-difluoro-4-methoxy-phenyl)imidazo[1,2-a]pyrazin-8-yl]amino]-2-ethyl-benzoyl]amino]pentyl]-methyl-ammonium Formate]"
11,434 nM,"CCc1cc(Nc2nccn3c(-c4ccc(OC)c(F)c4F)cnc23)ccc1C(=O)NCCCCC[N+](C)(CCCC(=O)O)CC1CNC1 (stereo not shown) [Example 107, Azetidin-3-ylmethyl-(3-carboxypropyl)-[5-[[4-[[3-(2,3-difluoro-4-methoxy-phenyl)imidazo[1,2-a]pyrazin-8-yl]amino]-2-ethyl-benzoyl]amino]pentyl]-methyl-ammonium 2,2,2-trifluoroacetate]"
12,1590 nM,"C[N+](C)(C)CCN[C@H]1C[C@@H](NC(=O)c2ccc(Nc3nccn4c(-c5c[nH]nc5C(F)(F)F)cnc34)cc2Cl)C1 [Example 108, 2-[[3-[[2-chloro-4-[[3-[3-(trifluoromethyl)-1H-pyrazol-4-yl]imidazo[1,2-a]pyrazin-8-yl]amino]benzoyl]amino]cyclobutyl]amino]ethyl-trimethyl-ammonium Formate]"
13,3830 nM,"CCc1cc(Nc2nccn3c(-c4cn(CC#N)nc4C(F)(F)F)cnc23)ccc1C(=O)NCCCCC[N+](C)(CC(=O)O)CC1CNC1 (stereo not shown) [Example 109, Azetidin-3-ylmethyl-(carboxymethyl)-[5-[[4-[[3-[1-(cyanomethyl)-3-(trifluoromethyl)pyrazol-4-yl]imidazo[1,2-a]pyrazin-8-yl]amino]-2-ethyl-benzoyl]amino]pentyl]-methyl-ammonium Formate]"

# Same assay, conditions: Acinetobacter baumannii, ATCC17961, 16 h, read-out: ATCC 17961 IC90
row,Compound,IC90
1,"CCc1cc(Nc2nccn3c(-c4ccc(OC(F)F)c(F)c4F)cnc23)ccc1C(=O)NCCC1C[N+](C)(CC2CNC2)C1 (stereo not shown) [Example 90, N-[2-[1-(azetidin-3-ylmethyl)-1-methyl-azetidin-1-ium-3-yl]ethyl]-4-[[3-[4-(difluoromethoxy)-2,3-difluoro-phenyl]imidazo[1,2-a]pyrazin-8-yl]amino]-2-ethyl-benzamide Diformate]",320 nM
2,"CCc1cc(Nc2nccn3c(-c4ccc(OC)c(F)c4F)cnc23)ccc1C(=O)NCCCCC[N+](C)(CCCN)CC(=O)O (stereo not shown) [Example 104, 3-aminopropyl-(carboxymethyl)-[5-[[4-[[3-(2,3-difluoro-4-methoxy-phenyl)imidazo[1,2-a]pyrazin-8-yl]amino]-2-ethyl-benzoyl]amino]pentyl]-methyl-ammonium Formate]",118 nM
